Usually IC50 stands for the concentration that gives 50% inhibition.

Where only a bound is given, the exact number is not on record here.

The target of this assay is Factor D (Homo sapiens, UniProt P00746). The assay can be described thus: Factor D esterolytic assay. The assay is classed as biochemical. To be noted: substrate Z-Lys-SBzl 1.29 mM, 100 mM HEPES, 500 mM NaCl, pH 7.5, 10% DMSO, tested a minimum of three times. The procedure, abridged: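 Human Factor D esterolytic assay in 100 mM HEPES, 500 mM NaCl, pH 7.5, 10% DMSO, with 1.29 mM Z-Lys-SBzl substrate. Released thiol detected with DTNB at 405 nm over 600 s, minus 690 nm background. Substrate added immediately or after room-temperature preincubation with compound. IC50 from percent inhibition relative to enzyme alone; ≥3 tests.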
Factor D, sequence (P00746 26-253): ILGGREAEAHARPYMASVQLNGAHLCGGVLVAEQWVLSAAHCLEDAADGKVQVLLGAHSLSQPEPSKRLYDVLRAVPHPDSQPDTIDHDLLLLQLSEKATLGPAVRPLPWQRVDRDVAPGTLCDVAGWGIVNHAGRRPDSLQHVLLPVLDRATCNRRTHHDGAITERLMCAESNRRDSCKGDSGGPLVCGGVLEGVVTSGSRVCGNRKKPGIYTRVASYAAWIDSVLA
`CC(C)C(=O)Nc1ccc(CC(=O)O)c(OCc2cc(-c3cccc(CN)c3)c3occc3c2)c1` [Compound 70f]: the IC50 was under 1000 nM.
To `NCc1cccc(-c2cc(C(=O)Nc3ccccc3CC(=O)O)cc3c2ccn3-c2ccccc2)c1` [Compound 71e, 2-(2-(4-(3-(aminomethyl)phenyl)-1-phenyl-1H-indole-6-carboxamido)phenyl)acetic acid] belongs under 1000 nM; to `CC(O)c1ccc(CC(=O)O)c(OCc2cc(-c3cccc(CN)c3)c3occc3c2)c1` (stereo not drawn) [Compound 72e, 2-(2-((7-(3-(aminomethyl)phenyl)benzofuran-5-yl)methoxy)-4-(1-hydroxyethyl)phenyl)acetic acid], under 1000 nM.
The value for `NCc1cc(-c2cc(COc3ccc(F)cc3CC(=O)O)cc3cc(F)oc23)ccn1` [Compound 73c, 2-(2-((7-(2-(aminomethyl)pyridin-4-yl)-2-fluorobenzofuran-5-yl)methoxy)-5-fluorophenyl)acetic acid] was under 1000 nM; that for `CC(=O)c1ccc(CC(=O)O)c(OCc2cc(-c3ccnc(CN)c3)c3oc(F)cc3c2)c1` [Compound 74d, 2-(4-acetyl-2-((7-(2-(aminomethyl)pyridin-4-yl)-2-fluorobenzofuran-5-yl)methoxy)phenyl)acetic acid] was under 1000 nM.
The value for `CC(=O)c1ccc(CC(=O)O)c(OCc2cc(-c3ccnc(CN)c3F)c3oc(F)cc3c2)c1` [Compound 75d, 2-(4-acetyl-2-((7-(2-(aminomethyl)-3-fluoropyridin-4-yl)-2-fluorobenzofuran-5-yl)methoxy)phenyl)acetic acid] was under 1000 nM; that for `CC(=O)c1ccc(CC(=O)O)c(OCc2cc(-c3cccc(CN)c3F)c3oc(F)cc3c2)c1` [Compound 76e, 2-(4-acetyl-2-((7-(3-(aminomethyl)-2-fluorophenyl)-2-fluorobenzofuran-5-yl)methoxy)phenyl)acetic acid] was under 1000 nM; that for `CC(Oc1ccccc1CC(=O)O)c1cc(-c2cccc(CN)c2)c2occc2c1` (stereo not drawn) [Compound 77e, 2-(2-(1-(7-(3-(aminomethyl)phenyl)benzofuran-5-yl)ethoxy)phenyl)acetic acid] was under 1000 nM.
As for `Cn1cc(-c2c(COc3ccccc3CC(=O)O)cc(-c3cccc(CN)c3)c3occc23)cn1` [Compound 78e, 2-(2-((7-(3-(aminomethyl)phenyl)-4-(1-methyl-1H-pyrazol-4-yl)benzofuran-5-yl)methoxy)phenyl)acetic acid], the concentration for half-maximal inhibition (IC50) is under 1000 nM.
For the molecule `Cn1ccc(COc2c(COc3ccccc3CC(=O)O)cc(-c3cccc(CN)c3)c3occc23)n1` [Compound 79g, 2-(2-((7-(3-(aminomethyl)phenyl)-4-((1-methyl-1H-pyrazol-3-yl)methoxy)benzofuran-5-yl)methoxy)phenyl)acetic acid], the IC50 was under 1000 nM.
To `NCc1cccc(-c2cc(COc3ccccc3CC(=O)O)c(OCc3ccncc3)c3ccoc23)c1` [Compound 80g, 2-(2-((7-(3-(aminomethyl)phenyl)-4-(pyridin-4-ylmethoxy)benzofuran-5-yl)methoxy)phenyl)acetic acid] belongs under 1000 nM; to `COCOc1c(COc2ccccc2CC(=O)O)cc(-c2cccc(CN)c2)c2occc12` [Compound 81h, 2-(2-((7-(3-(aminomethyl)phenyl)-4-(methoxymethoxy)benzofuran-5-yl)methoxy)phenyl)acetic acid], under 1000 nM; to `NCc1ccc(-c2nc(C(=O)Nc3ccccc3CC(=O)O)c3cccn3n2)cc1` [Compound 82g, 2-(2-(2-(4-(aminomethyl)phenyl)pyrrolo[2,1-f][1,2,4]triazine-4-carboxamido)phenyl)acetic acid], over 10000 nM.
On to `NCc1cccc(-c2cc(COc3ccccc3)cc3ccoc23)c1` [Compound 83b, (3-(5-(phenoxymethyl)benzofuran-7-yl)phenyl)methanamine], for which the IC50 is over 10000 nM.
To `NC(=O)c1cc(-c2cc(COc3ccccc3CC(=O)O)cc3ccoc23)cs1` [Compound 84c, 2-(2-((7-(5-carbamoylthiophen-3-yl)benzofuran-5-yl)methoxy)phenyl)acetic acid] belongs over 10000 nM.

Values taken from US20250275991A1, “ORAL COMPLEMENT FACTOR D INHIBITORS” (BioCryst Pharmaceuticals, Inc, priority 2019, published 2025).
